Assays:
[1] = Circular dichroism spectroscopy, secondary structure; assay type: physicochemical; conditions: 1 mg/ml in Hanks balanced salt solution, 37 °C, up to day 6 (WT: by day 3)
[2] = test system: human brain microvascular endothelial cells (HBMEC); assay: BrdU labeling assay, cell proliferation; assay type: cell-based; conditions: 25 µM peptide, 48 h, 0.1% FBS, no FGF-2
[3] = test system: human brain microvascular endothelial cells (HBMEC); assay: BrdU labeling assay, proliferation induced by FGF-2; assay type: cell-based; conditions: FGF-2 20 ng/ml, 48 h
[4] = test system: human brain microvascular endothelial cells (HBMEC); assay: Pseudo-capillary sprouting, microcarrier culture in fibrin gel; assay type: cell-based; conditions: HBMEC on microcarriers in fibrin gel, FGF-2 20 ng/ml, 5 µM peptide, day 2
FGF-2 = FGF-2 production by Western blotting; assay type: cell-based, human; conditions: HBMEC, 5 µM peptide, 18 h; Western blot
FGFR-1 = FGFR-1 phosphorylation; assay type: cell-based, human; conditions: HBMEC, 5 µM peptide, FGF-2 20 ng/ml 15 min; IP anti-FGFR-1, anti p-Tyr
Akt = Akt phosphorylation by Western blotting; assay type: cell-based, human; conditions: HBMEC, 5 µM peptide, 30 min, FGF-2 20 ng/ml; Western blot
caspase-3 = assay: Cleaved caspase-3 expression by Western blotting; assay type: cell-based, human; conditions: HBMEC, 5 µM peptide, 18 h, FGF-2 20 ng/ml
[5] = Peptide solubility on aging; conditions: 1 mg/ml in Hanks' Balanced Salt Solution, 37 °C, up to 6 days; O.D. 280 nm after centrifugation

## E22Q: Synthetic Aβ (1–40) peptide bearing the E22Q (Dutch) mutation
[1]
  secondary structure by CD on further incubation: the β-sheet content increased
[2]
  inhibition of cell proliferation (BrdU incorporation): total inhibition
[3]; 1 µM peptide
  inhibition of FGF-2-induced BrdU incorporation: 60%
[3]; concentrations higher than 1 µM (up to 25 µM)
  inhibition of FGF-2-induced BrdU incorporation: > 90%
[4]
  reduction of pseudo-capillary sprouting area: nearly suppressed
FGF-2
  FGF-2 expression: decreased expression
FGFR-1
  FGFR-1 phosphorylation in response to FGF-2: reduced phosphorylation to levels observed in quiescent cells
Akt
  FGF-2-induced Akt phosphorylation: marked reduction
caspase-3
  caspase-3 activation with concomitant FGF-2 administration: failed to prevent caspase-3 activation
[5]
  solubility relative to the other peptides: lower values than those of WT
